Measurements taken from patent publication US20180148452A1, “TOLL-LIKE RECEPTOR-7 AGONIST” (MEDSHINE DISCOVERY INC., priority 2014, published 2018).
Where a name gives a salt, the structure may show the parent alone.

Experiments:
hTLR7 = biological target: T1, hTLR7 (Homo sapiens, UniProt Q9NYK1); assay: TLR7 agonist screening protocol in vitro (HEK-Blue-hTLR7 reporter, QUANTI-Blue); type: cell-based; settings: HEK-Blue-hTLR7 cells, 24 hours incubation, alkaline phosphatase OD650
T1 construct: expressed in transfected cells; host or cells: HEK-Blue-hTLR7 cells (HEK293-derived SEAP reporter line)
T1 sequence (Q9NYK1 27-1049): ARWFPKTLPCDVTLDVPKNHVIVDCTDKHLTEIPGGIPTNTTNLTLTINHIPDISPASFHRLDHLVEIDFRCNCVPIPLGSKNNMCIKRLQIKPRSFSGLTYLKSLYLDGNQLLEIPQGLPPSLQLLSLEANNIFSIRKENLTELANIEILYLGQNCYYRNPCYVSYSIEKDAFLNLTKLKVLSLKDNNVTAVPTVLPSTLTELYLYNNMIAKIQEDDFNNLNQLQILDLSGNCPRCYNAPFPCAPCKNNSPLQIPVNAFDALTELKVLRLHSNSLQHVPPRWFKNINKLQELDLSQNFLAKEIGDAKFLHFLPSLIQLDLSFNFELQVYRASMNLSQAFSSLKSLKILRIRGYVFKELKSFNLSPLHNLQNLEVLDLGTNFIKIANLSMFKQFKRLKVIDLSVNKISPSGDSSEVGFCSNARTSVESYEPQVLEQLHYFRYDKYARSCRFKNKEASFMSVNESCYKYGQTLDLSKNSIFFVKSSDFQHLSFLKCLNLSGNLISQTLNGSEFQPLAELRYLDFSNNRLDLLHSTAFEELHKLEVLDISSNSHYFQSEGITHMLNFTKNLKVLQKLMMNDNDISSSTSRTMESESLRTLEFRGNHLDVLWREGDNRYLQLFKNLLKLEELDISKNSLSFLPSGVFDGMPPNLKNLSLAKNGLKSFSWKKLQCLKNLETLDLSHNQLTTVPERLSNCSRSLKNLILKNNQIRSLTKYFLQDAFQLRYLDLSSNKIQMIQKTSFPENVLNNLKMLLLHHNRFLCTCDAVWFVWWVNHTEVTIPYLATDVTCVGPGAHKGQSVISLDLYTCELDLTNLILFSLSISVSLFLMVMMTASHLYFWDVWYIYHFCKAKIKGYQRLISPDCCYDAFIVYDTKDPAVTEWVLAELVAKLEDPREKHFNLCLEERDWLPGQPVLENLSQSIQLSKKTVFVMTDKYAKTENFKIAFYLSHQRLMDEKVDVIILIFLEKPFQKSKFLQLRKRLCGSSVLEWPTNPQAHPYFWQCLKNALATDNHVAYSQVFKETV
Experimental: Test 1: TLR7 Agonist Screening Protocol In Vitro
1. Preparation for 96-well plate: Compounds are 3 folds serial diluted with DMSO by POD, start from 10 mM, 10 concentrations (column 2 to 11, duplicated), 1 μL DMSO per well. Take 1 μL of 5 mM R848 as positive control (column 12) and 1 μL of DMSO as negative control (column 1).
2. Harvest cells and adjust cell suspension to the density of 250,000 cells/ml.
3. 200 μL cells are seeded into the cell culture plate containing compounds with the cell density of 50,000 cells/well, the final DMSO concentration is 0.5%.
4. Incubate the plates containing the cells and compounds at 37° C., 5% CO2 for 24 hours.
5. After 24 hours' incubation, fetch 20 μL supernatant from each well to transfer to another transparent 96-well cell culture plate. Add 180 μL QUANTI-Blue to each well of the cell culture plate containing 20 μL supernatant, and incubate at 37° C., 5% CO2 for 1 hour.
6. After 1 hour, determine alkaline phosphatase levels in 20 μL supernatant by using ELIASA reading at OD650.
7. Data analysis by Prism software, EC50 of each compound was obtained.

Female Balb/c mice = assay: Induction of IFN-α and TNF-α following intranasal dosing in the mouse; type: in vivo; settings: serum, 2 h after single i.n. dose; for IFN-α Conc. (1 mM): 1 mM (0.1 mpk); for IFN-α Conc. (3 mM) / TNF-α Conc. (3 mM): 3 mM (0.3 mpk); for IFN-α Conc. (10 mM) / TNF-α Conc. (10 mM): 10 mM (1 mpk); for IFN-α Conc. (30 mM) / TNF-α Conc. (30 mM): 30 mM (3 mpk)
Experimental: Test 3: Assay for the Induction of Interferon-α (IFN-α) and Tumor Necrosis Factor-α (TNF-α) Following Intranasal Dosing in the Mouse
Female Balb/c mice (18-20 g) were anesthetized with isoflurane and then administered intranasally (20 μL in total between the nostrils) with compounds dissolved in saline with 0.2% Tween 80. After two hours, mice were euthanased by CO2 inhalation and blood samples were taken by cardiac puncher. Then blood samples were centrifuged and serum was collected. Serum samples were tested by ELISA with appropriate dilution according to the manufacturer's instructions. In this model, compounds could induce different IFN-α/TNF-α levels related to the dose of the compounds, while no IFN-α/TNF-α was detected in vehicle treated controls.

CCCCOc1nc(N)c2[nH]c(C#N)c(CCCCCN3CCCCC3)c2n1 [Example 1, 4-Amino-2-butoxy-7-(5-(piperidin-1-yl)pentyl)-5H-pyrrolo[3,2-d]pyrimidine-6-carbonitrile formate]
EC50 (hTLR7): 1 to 100 nM
IFN-α Conc. (1 mM) (Female Balb/c mice): 500 pg/mL
IFN-α Conc. (3 mM) (Female Balb/c mice): 4500 pg/mL
TNF-α Conc. (3 mM) (Female Balb/c mice): 100 pg/mL
IFN-α Conc. (10 mM) (Female Balb/c mice): 7500 pg/mL
TNF-α Conc. (10 mM) (Female Balb/c mice): 300 pg/mL
IFN-α Conc. (30 mM) (Female Balb/c mice): 7000 pg/mL
TNF-α Conc. (30 mM) (Female Balb/c mice): 500 pg/mL

CCC[C@H](C)Oc1nc(N)c2[nH]c(C#N)c(CCCCCN3CCCCC3)c2n1 [Example 2, (S)-4-amino-(1-methylbutoxy)-7-(5-(piperidin-1-yl)pentyl)-5H-pyrrolo[3,2-d]pyrimidine-6-carbonitrile formate]
EC50 (hTLR7): 1 to 100 nM

CCCCOc1nc(N)c2[nH]c(C#N)c(CCCCN3CCCCC3)c2n1 [Example 3, 4-amino-2-butoxy-7-(4-(piperidin-1-yl)butyl)-5H-pyrrolo[3,2-d]pyrimidine-6-carbonitrile formate]
EC50 (hTLR7): 1 to 100 nM

CCCCOc1nc(N)c2[nH]c(C#N)c(CCCCCN3CCOCC3)c2n1 [Example 4, 4-amino-2-butoxy-7-(5-morpholin-1-yl)pentyl)-5H-pyrrolo[3,2-d]pyrimidine-6-carbonitrile formate]
EC50 (hTLR7): 1 to 100 nM

CCCCOc1nc(N)c2[nH]c(C#N)c(CCCCCN3CC4(COC4)C3)c2n1 [Example 5, 7-(5-(2-oxa-6-azaspiro[3.3]heptan-6-yl)pentyl)-4-amino-2-butoxy-5H-pyrrolo[3,2-d]pyrimidine-6-carbonitrile formate]
EC50 (hTLR7): 1 to 100 nM

CCCCOc1nc(N)c2[nH]c(C#N)c(CCCCCN3CCN(C)CC3)c2n1 [Example 6, 4-amino-2-butoxy-7-(5-(4-methylpiperazin-1-yl)pentyl)-5H-pyrrolo[3,2-d]pyrimidine-6-carbonitrile formate]
EC50 (hTLR7): 1 to 100 nM

CCCCOc1nc(N)c2[nH]c(C#N)c(CCCCCN3CC4CC3CN4C)c2n1 (stereo not shown) [Example 7, 4-amino-2-butoxy-7-(5-(5-methyl-2,5-diazabicyclo[2.2.1]heptan-2-yl)pentyl)-5H-pyrrolo[3,2-d]pyrimidine-6-carbonitrile formate]
EC50 (hTLR7): 250 to 500 nM

CCCCOc1nc(N)c2[nH]c(C#N)c(CCCCCN(CC)CC)c2n1 [Example 8, 4-amino-2-butoxy-7-(5-(diethylamino)pentyl)-5H-pyrrolo[3,2-d]pyrimidine-6-carbonitrile formate]
EC50 (hTLR7): 1 to 100 nM

CCCCOc1nc(N)c2[nH]c(C#N)c(CCCCCN3CCC(F)(F)CC3)c2n1 [Example 9, 4-amino-2-butoxy-7-(5-(4,4′-difluoro-1-piperidinyl)pentyl)-5H-pyrrolo[3,2-d]pyrimidine-6-carbonitrile formate]
EC50 (hTLR7): 100 to 250 nM

CCCCOc1nc(N)c2[nH]c(C#N)c(CCCCCN3CCN(C)CC3=O)c2n1 [Example 11, 4-amino-2-butoxy-7-(5-(4-methyl-2-oxopiperazin-1-yl)pentyl)-5H-pyrrolo[3,2-d]pyrimidine-6-carbonitrile formate]
EC50 (hTLR7): 100 to 250 nM

CCCCOc1nc(N)c2[nH]c(C#N)c(CCCCCN3CCC[C@@H]3C(N)=O)c2n1 [Example 13]
EC50 (hTLR7): 1 to 100 nM

CCCCOc1nc(N)c2[nH]c(C#N)c(CCCCCN3CCCC3C(=O)N(C)C)c2n1 (stereo not shown) [Example 14, 4-amino-2-butoxy-7-(5-(2-(N,N′-dimethylformamido)-pyrrolidin-1-yl)pentyl)-5H-pyrrolo[3,2-d]pyrimidin-6-nitrile formate]
EC50 (hTLR7): 1 to 100 nM

CCCCOc1nc(N)c2[nH]c(C#N)c(CCCCCN3CCCC3C(=O)N3CCN(C)CC3)c2n1 (stereo not shown) [Example 15, 4-amino-2-butoxy-7-(5-((2-(4-methylpiperazine-1-carbonyl)pyrrolidin-1-yl)pentyl)-5H-pyrrolo[3,2-d]pyrimidine-6-carbonitrile formate]
EC50 (hTLR7): 100 to 250 nM

CCCCOc1nc(N)c2[nH]c(C#N)c(CCCCCN3CCCC3C(=O)NCC3CC3)c2n1 (stereo not shown) [Example 16, formate]
EC50 (hTLR7): 100 to 250 nM

CCCCOc1nc(N)c2[nH]c(C#N)c(CCCCCN3CCCCC3C(N)=O)c2n1 (stereo not shown) [Example 17, hydrochloride]
EC50 (hTLR7): 1 to 100 nM

CCCCOc1nc(N)c2[nH]c(C#N)c(CCCCCNC(C(N)=O)C(C)C)c2n1 (stereo not shown) [Example 18, 4-amino-2-butoxy-7-(5-((1-formamido-1′-isopropyl)amino)pentyl)-5H-pyrrolo[3,2-d]pyrimidine-6-carbonitrile hydrochloride]
EC50 (hTLR7): 1 to 100 nM

CCCCOc1nc(N)c2[nH]c(C#N)c(CCCCCCN3CCCC3)c2n1 [Example 19, 4-amino-2-butoxy-7-(6-(tetrahydropyrrol-1-yl)hexyl)-5H-pyrrolo[3,2-d]pyrimidine-6-carbonitrile formate]
EC50 (hTLR7): 1 to 100 nM

CCCCOc1nc(N)c2[nH]c(C#N)c(CCCCCN3CCCC3)c2n1 [Example 20, 4-amino-2-butoxy-7-(5-(tetrahydropyrrol-1-yl)pentyl)-5H-pyrrolo[3,2-d]pyrimidine-6-carbonitrile hydrochloride]
EC50 (hTLR7): 1 to 100 nM

CCCCOc1nc(N)c2[nH]c(C#N)c(CCCCCN3CC4CCC(C3)N4C)c2n1 [Example 21, 4-amino-2-butoxy-7-(5-(8-methyl-3,8-diazabicyclo[3.2.1]octan-3-yl)pentyl)-5H-pyrrolo[3,2-d]pyrimidine-6-carbonitrile formate]
EC50 (hTLR7): 100 to 250 nM

CCCCOc1nc(N)c2[nH]c(C#N)c(CCCCC3CCCCN3)c2n1 (stereo not shown) [Example 22, 4-amino-2-butoxy-7-(4-(piperidin-2-yl)butyl)-5H-pyrrolo[3,2-d]pyrimidine-6-carbonitrile formate]
EC50 (hTLR7): 100 to 250 nM

CCCCOc1nc(N)c2[nH]c(C#N)c(CCCCC3CCCCN3C(=O)NC)c2n1 (stereo not shown) [Example 23, 4-amino-2-butoxy-7-(4-(1-(1-N-methylcarbonyl)piperidin-2-yl)butyl)-5H-pyrrolo[3,2-d]pyrimidin-6-nitrile]
EC50 (hTLR7): 100 to 250 nM

CCCCOc1nc(N)c2[nH]c(C#N)c(CCCC3CCN(C)CC3)c2n1 [Example 24, 4-amino-2-butoxy-7-(3-(1-methylpiperidin-4-yl)propyl)-5H-pyrrolo[3,2-d]pyrimidine-6-carbonitrile formate]
EC50 (hTLR7): 1 to 100 nM

CCC[C@H](C)Oc1nc(N)c2[nH]c(=O)n(CCCCCN3CCCCC3)c2n1.Cl [GSK-2245035, reference compound]
EC50 (hTLR7): 1 to 100 nM
IFN-α Conc. (1 mM) (Female Balb/c mice): <100 pg/mL
IFN-α Conc. (3 mM) (Female Balb/c mice): 1000 pg/mL
TNF-α Conc. (3 mM) (Female Balb/c mice): <10 pg/mL
IFN-α Conc. (10 mM) (Female Balb/c mice): 3500 pg/mL
TNF-α Conc. (10 mM) (Female Balb/c mice): 50 pg/mL
IFN-α Conc. (30 mM) (Female Balb/c mice): 4500 pg/mL
TNF-α Conc. (30 mM) (Female Balb/c mice): 400 pg/mL
